# Results published in article PMC10725991, “Kaempferol is a novel antiviral agent against channel catfish virus infection through blocking viral attachment and penetration in vitro” (Frontiers in Veterinary Science, 2023).
# System: CCO cells
# Assay: Compounds cytotoxicity assay (CCK-8 cell viability)
# Format: cell-based
# Settings: channel catfish, 72 h
# Experimental: The cytotoxicity effects of the selected compounds were detected in CCO cells by the cell viability assay. In brief, the CCO cells were seeded in 96-well plates and cultured to reach approximately 90% confluence in each well at 28°C. Subsequently, the monolayer cells were exposed to a maintenance medium with the tested compounds at different concentrations or DMSO for 72 h. Cell Counting Kit-8 (Beyotime, China) was used to measure the cell viability according to the manufacturer’s protocol after 72 h incubation. The optical density at 450 nm was measured using a Spark microplate reader (TECAN, Switzerland). Then, the maximum safe concentration (≥ 90% cell survived, SC90) of compounds to CCO cells was calculated according to the cell viability.
# All data were analyzed with GraphPad Prism 8.0. Viral titers were log10 transformed prior to statistical analyses. The SC90 values were calculated using probit analysis. The data are expressed as the arithmetic mean ± standard deviation (SD) and were analyzed by one-way ANOVA with multiple comparisons test. Statistical significance was defined as *p < 0.05, **p < 0.01.
# Figure 1 Cytotoxicity assay. The CCO cells were treated with 12 tested compounds with different concentrations in a 96-well plate for 72 h, and then the cell viability was measured by CCK-8. (A) Kaempferol, (B) Tannic acid, (C) P-Coumaric acid, (D) Magnolol, (E) Baicalein, (F) Genistein, (G) Mangiferin, (H) Rosmarinic acid, (I) Artemisinin, (J) Myricetin, (K) Ginkgolic acid, (L) Shikonin. Data represent mean ± SD normalized to values for DMSO treated group. The SC90 was analyzed and calculated using probit analysis. TEXT PRINTED IN THE PICTURE: (A) Kaempferol: SC90 = 47.53 μg/ml | (B) Tannic acid: SC90 = 90.02 μg/ml | (C) P-Coumaric acid: SC90 ≥500 μg/ml | (D) Magnolol: SC90 = 10.02 μg/ml | (E) Baicalein: SC90 = 29.73 μg/ml | (F) Genistein: SC90 = 13.66 μg/ml | (G) Mangiferin: SC90 ≥500 μg/ml | (H) Rosmarinic acid: SC90 = 46.37 μg/ml | (I) Artemisinin: SC90 ≥500 μg/ml | (J) Myricetin: SC90 = 346.19 μg/ml | (K) Ginkgolic acid: SC90 = 10.89 μg/ml | (L) Shikonin: SC90 = 54.44 μg/ml DOUBTS OF THE COPYIST ABOUT THIS PICTURE: All SC90 values are in small print, so 3, 5, 6, 8 and 9 are hard to tell apart / Kaempferol, SC90: 47.53 (5 or 3 uncertain) / Tannic acid, SC90: 90.02 (9 or 8 uncertain) / Baicalein, SC90: 29.73 (9 or 3 uncertain) / Genistein, SC90: 13.66 (3 and 6 uncertain) / Rosmarinic acid, SC90: 46.37 (6 and 3 uncertain) / Myricetin, SC90: 346.19 (3, 6 and 9 uncertain) / Ginkgolic acid, SC90: 10.89 (8 and 9 uncertain) / Shikonin, SC90: 54.44 (5 uncertain) / P-Coumaric acid, Mangiferin, Artemisinin, SC90: sign ≥ or >; 500 (5 uncertain)
row,SMILES,"SC90 (maximum safe concentration, ≥ 90% cell survived)"
1,"C[C@@H]1CC[C@H]2[C@@H](C)C(=O)O[C@@H]3O[C@@]4(C)CC[C@@H]1[C@]32OO4 [Artemisinin, reference compound]",≥ 500 µg/mL
2,O=c1cc(-c2ccccc2)oc2cc(O)c(O)c(O)c12 [Baicalein],29.73 µg/mL
3,O=c1c(O)c(-c2cc(O)c(O)c(O)c2)oc2cc(O)cc(O)c12 [Myricetin],346.19 µg/mL
